In ChEMBL document CHEMBL1821573, “A fast virtual screening approach to identify structurally diverse inhibitors of trypanothione reductase” (Bioorg Med Chem Lett, 2011):

Target: Trypanothione reductase (Trypanosoma cruzi, UniProt P28593)
Test: Inhibition of Trypanosoma cruzi TryR using trypanothione as substrate preincubated for 10 mins

Trypanothione reductase, sequence (P28593 whole entry): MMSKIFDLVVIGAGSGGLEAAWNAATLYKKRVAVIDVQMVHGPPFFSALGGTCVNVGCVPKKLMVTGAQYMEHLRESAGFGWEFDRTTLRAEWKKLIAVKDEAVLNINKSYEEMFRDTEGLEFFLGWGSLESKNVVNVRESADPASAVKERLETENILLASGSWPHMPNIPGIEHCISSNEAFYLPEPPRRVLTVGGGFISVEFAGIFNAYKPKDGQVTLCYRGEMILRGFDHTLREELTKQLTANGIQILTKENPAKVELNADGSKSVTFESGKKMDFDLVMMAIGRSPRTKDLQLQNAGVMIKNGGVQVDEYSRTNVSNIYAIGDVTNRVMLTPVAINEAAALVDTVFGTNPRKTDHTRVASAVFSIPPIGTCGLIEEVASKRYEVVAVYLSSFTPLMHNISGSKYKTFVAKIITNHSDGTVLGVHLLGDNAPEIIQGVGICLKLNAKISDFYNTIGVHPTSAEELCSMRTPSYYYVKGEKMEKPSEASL

| Structure (SMILES) | Ki [µM] |
| --- | --- |
| Cc1ccc2nc(Cc3ccc(NC(=O)C(C)Oc4ccccc4)cc3)[nH]c2c1 (centres undefined) | 26.9 |
| Nc1ccc2[nH]c(CCCCCCCCc3nc4cc(N)ccc4[nH]3)nc2c1 | 10.6 |
| CCn1c(-c2ccccc2)cnc1SCC(=O)Nc1ccc(C2CCCCC2)cc1 | 5.7 |
| COCCn1c(-c2ccccc2)cnc1SCC(=O)CNc1ccc(S(=O)(=O)N2CCCCC2)cc1 | 11.1 |
| N#Cc1c(NC(=O)CSc2nc(-c3ccc(Cl)cc3)c[nH]2)sc2c1CCCC2 | 9.3 |
| O=C(CNc1ccc(S(=O)(=O)N2CCCCC2)cc1)CSc1ncc(-c2ccc(Cl)cc2)n1-c1ccccc1 | 22.3 |
| CCn1c(-c2ccccc2)cnc1SCC(=O)Nc1sc2c(c1C#N)CCCC2 | 13.1 |
| Cc1sc2ncn3c(SCC(=O)Nc4sc5c(c4C#N)CCCC5)nnc3c2c1C | 11.8 |
| Cc1ccc2[nH]c(Cc3ccc(NC(=O)CCc4nc5ccccc5[nH]4)cc3)nc2c1 | 13.1 |
